This note sets out measurements from patent US6369057B1, “Quinoxalines, processes for their preparation and their use” (Aventis Pharma Deutschland GmbH, priority 1991, dated 2002).

In brackets after ≈: the same amount, converted by molar mass.

The first experiment deals with HIV. The experiment in a line: Test of preparations against HIV in cell culture (T-cell culture assay). In kind it is cell-based. The following applies: Human immunodeficiency virus 1, 72 h; lowest concentration where no giant cells were observed; HIV-infected lymphocytes from donor blood, 3 days at 37° C. On the procedure:
Test of Preparations Against HIV in Cell Culture
Complete medium additionally contains 20% fetal calf serum and 40 IU/ml recombinant interleukin 2.
Lymphocytes which have been isolated from fresh donor blood by means of Ficoll gradient centrifugation are cultured for 36 hours in complete medium with an addition of 2 μg/ml phytohemagglutinin (Wellcome) at 37° C. under 5% of CO2. After 10% of DMSO has been added, the cells are frozen at a density of 5 [formula]10^6 and stored in liquid nitrogen. For the test, the cells are defrosted, washed in RPMI medium and cultured for 3-4 days in the complete medium.
The test preparations were dissolved in DMSO at a concentration of 16.7 mg/ml and diluted in complete medium to 1 mg/ml.
0.4 ml of medium was introduced into 24-multiwell dishes. 0.1 ml of the dissolved preparation was added to the upper row of the dish, and, by transferring 0.1 ml portions, a geometric dilution series was established. Controls without preparation always contained 0.4 ml of complete medium containing 0.5% of DMSO. Lymphocyte cultures with a cell density of 5 [formula]10^5 cells/ml were infected by adding 1/50 volume supernatant from HIV-infected lymphocyte cultures. The titer of these culture supernatants was determined by end-point titration as 1-5 [formula]10^6 infectious units/ml. After 30 minutes' incubation at 37° C., the infected lymphocytes were removed by centrifugation and taken up in an equal volume of medium. From this cell suspension, 0.6 ml aliquots were transferred into all wells of the test plate. The mixtures were incubated for 3 days at 37° C.
The infected cell cultures were examined under the microscope for the presence of giant cells, which indicate active virus multiplication in the culture. The lowest concentration of preparation where no giant cells were observed was determined as inhibitory concentration against HIV. As a control, the supernatants from the culture plates were tested for the presence of HIV antigen with the aid of an HIV antigen test following the manufacturer's instructions (Organon).
As for `C[C@H]1C(=O)Nc2ccc(Cl)cc2N1C(=O)OCc1ccccc1` [Example III, (3S)-4-N-(Benzyloxycarbonyl)-6-chloro-3-methyl-3,4-di-hydroquinoxalin-2(1H)-one], the MIC came out at 0.8 µg/mL (≈ 2.42 µM).
The same measure, in the same setting: for `CC(C)=CCN1c2ccccc2NC(=O)C1(C)C` [Example XX, 3,3-Dimethyl-4-N-(3-methyl-2-buten-1-yl)-3,4-dihydroquinoxalin-2(1H)-one] the value was less than 4 µg/mL.

The same experiment, now with this note: lowest concentration where no giant cells were observed; HIV-infected lymphocytes from donor blood, 3 days at 37° C.
Consider `CC1C(=O)Nc2ccc(Cl)cc2N1Cc1ccccc1` (centres unmarked) [Example 3-21], for which the “T-cell culture assay MIC” value was determined as 0.16 µg/mL.
For the compound `CC(C)COC(=O)N1c2cc(Cl)ccc2NC(=O)C1C` (centres unmarked) [Example 3-26], the “T-cell culture assay MIC” value came to 0.4 µg/mL.
Same read-out and setting: the same measure for `C=C(C)OC(=O)N1c2cc(OCCOC)ccc2NC(=O)C1CC` (centres unmarked) [Example 3-33]: 0.4 µg/mL.
Consider `C=C(C)OC(=O)N1c2cc(Cl)ccc2NC(=O)C1CCSC` (centres unmarked) [Example 3-44], for which the “T-cell culture assay MIC” value was less than 0.8 µg/mL.
The same measure, in the same setting: for `C=CCOC(=O)N1c2cc(Cl)ccc2NC(=O)C1CC(C)C` (centres unmarked) [Example 3-48] the value was less than 0.8 µg/mL; for `CC(C)=CCN1c2c(Cl)cccc2NC(=O)C1C` (centres unmarked) [Example 3-52], more than 0.8 µg/mL.
Turning to `CC(C)=CCN1c2ccc(Cl)cc2NC(=O)C1C` (centres unmarked) [Example 3-53], the “T-cell culture assay MIC” value is more than 0.8 µg/mL.
With `C=C(C)OC(=O)N1c2ccc(Cl)cc2NC(=O)C1CCSC` (centres unmarked) [Example 3-62], the “T-cell culture assay MIC” value was less than 4.0 µg/mL.
The same measure, in the same setting: for `CC(C)=CCN1c2ccc(F)cc2NC(=O)C1C` (centres unmarked) [Example 3-64] the value was more than 0.8 µg/mL; for `C=C(C)OC(=O)N1c2ccc(F)cc2NC(=O)C1C` (centres unmarked) [Example 3-66], more than 0.08 µg/mL.
For the compound `CC(C)=CCN1c2cc(F)ccc2NC(=O)C1C` (centres unmarked) [Example 3-67], the “T-cell culture assay MIC” value is less than 0.8 µg/mL.
Same read-out and setting: for `C=C(C)OC(=O)N1c2ccc(Oc3ccccc3)cc2NC(=O)C1C` (centres unmarked) [Example 3-73] the value was more than 0.4 µg/mL; for `C=CCOC(=O)N1c2cc(Cl)ccc2NC(=O)C1C(C)CC` (centres unmarked) [Example 3-80], 0.4 µg/mL; for `CCCCC(=O)N1c2cc(Cl)ccc2NC(=O)C1C` (centres unmarked) [Example 3-87], more than 0.8 µg/mL.
Same read-out and setting: the same measure for `CCCC(=O)N1c2cc(Cl)ccc2NC(=O)C1C` (centres unmarked) [Example 3-88]: 0.8 µg/mL; for `CCC1(CC)C(=O)Nc2cc(C)ccc2N1CC=C(C)C` [Example 6-20]: less than 0.8 µg/mL.
Consider `CC(C)=CCN1c2ccc(F)cc2NC(=O)C1(C)C` [Example 6-22], for which the “T-cell culture assay MIC” value was more than 0.8 µg/mL.
In the case of `C=C(C)OC(=O)N1c2ccc(F)cc2NC(=O)C1(C)C` [Example 6-32], the “T-cell culture assay MIC” value was less than 0.08 µg/mL.
Still for that read-out and setting: for `C=C(C)OC(=O)N1c2ccc(OCC)cc2NC(=O)C1(C)C` [Example 6-33] the value was more than 0.8 µg/mL; for `C=C(C)OC(=O)N1c2cc(C)c(C)cc2NC(=O)C1(C)C` [Example 6-36], less than 0.8 µg/mL.
Regarding `C=C(C)OC(=O)N1c2ccc(Oc3ccccc3)cc2NC(=O)C1(C)C` [Example 6-39], the “T-cell culture assay MIC” value was found to be 0.4 µg/mL.
On the same count and under the same terms, the same measure for `CC1C(=O)Nc2ccc(Cl)cc2N1C1CCC1` (centres unmarked) [Example 10-4]: 0.4 µg/mL; for `CC(C)CCN1c2cc(Cl)ccc2NC(=O)C1C` (centres unmarked) [Example 10-5]: less than 0.8 µg/mL; for `CC1C(=O)Nc2ccc(Cl)cc2N1Cc1ccc(Br)cc1` (centres unmarked) [Example 10-14]: less than 0.8 µg/mL.
Still for that read-out and setting: for `CC=CCOC(=O)N1c2cc(Cl)ccc2NC(=O)C1C` (centres unmarked) [Example 11-1] the value was less than 0.8 µg/mL.
As to `C#CCOC(=O)N1c2cc(Cl)ccc2NC(=O)C1C` (centres unmarked) [Example 11-3], the “T-cell culture assay MIC” value was less than 0.8 µg/mL.
Still for that read-out and setting: for `CC#CCOC(=O)N1c2cc(Cl)ccc2NC(=O)C1C` (centres unmarked) [Example 11-4] the value was 0.8 µg/mL.
